In patent US9481796B2, “Method for producing nanoparticles” (M. Technique Co., Ltd., priority 2010, dated 2016):

Test: Volume-average particle diameter of benzbromarone nanoparticles (Nanotrac particle size distribution), Example 2-2
Assay type: physicochemical
Settings: ethanol solution of 3% benzbromarone/0.1% Tween 80 into pure water
Protocol: Particle size distribution was measured by using a Nanotrac particle size distribution measurement instrument (UPA-EX150, manufactured by Nikkiso Co., Ltd.), and the volume-average particle diameter was taken. An ethanol solution in which benzbromarone and Tween 80 (dispersant) were dissolved with the concentrations thereof being 3% for benzbromarone and 0.1% for Tween 80 was introduced as a second fluid into between the processing surfaces 1 and 2 at a rate of 10 mL/minute, together with pure water as a first fluid from the center at supply pressure of 0.25 MPa, a rotation speed of 700 rpm, and a rate of 200 g/minute, whereby the two fluids were mixed. The dispersion solution of benzbromarone was discharged. Temperature conditions of the first fluid and the second fluid, and results of particle size distribution of the obtained dispersion solution are shown in Table 3. The particle diameters of nanoparticles obtained in respective conditions were confirmed by a transmission electron microscope (TEM); it was confirmed that the particle diameter confirmed by the TEM picture was identical to the measurement result of the particle size distribution. The SEM picture of the nanoparticles obtained under the temperature conditions of 25° C. for the first fluid and 25° C. for the second fluid (ΔT=0° C.) is shown in FIG. 17; and the TEM picture of the nanoparticles obtained under the temperature conditions of 5° C. for the first fluid and 35° C. for the second fluid (ΔT=30° C.) is shown in FIG. 18, respectively.

Volume-average particle diameter (T1 5°C, T2 5°C, ΔT 0): 229.3 nm
Volume-average particle diameter (T1 5°C, T2 8°C, ΔT 3): 204.6 nm
Volume-average particle diameter (T1 5°C, T2 10°C, ΔT 5): 51.3 nm
Volume-average particle diameter (T1 5°C, T2 35°C, ΔT 30): 58.6 nm
Volume-average particle diameter (T1 25°C, T2 25°C, ΔT 0): 208.4 nm
SMILES: CCc1oc2ccccc2c1C(=O)c1cc(Br)c(O)c(Br)c1 [benzbromarone]
